Assay results from ChEMBL document CHEMBL4431311, “Endothelin-Receptor Antagonists beyond Pulmonary Arterial Hypertension: Cancer and Fibrosis” (J Med Chem, 2016).

Key:
[1] = target: T1, Endothelin receptor type B (Homo sapiens, UniProt P24530); test: Displacement of [125I]ET-1 from ET-B receptor in human Girardi heart cells incubated for 4 hrs by gamma counting method; type: cell-based
T1 sequence (P24530 whole entry): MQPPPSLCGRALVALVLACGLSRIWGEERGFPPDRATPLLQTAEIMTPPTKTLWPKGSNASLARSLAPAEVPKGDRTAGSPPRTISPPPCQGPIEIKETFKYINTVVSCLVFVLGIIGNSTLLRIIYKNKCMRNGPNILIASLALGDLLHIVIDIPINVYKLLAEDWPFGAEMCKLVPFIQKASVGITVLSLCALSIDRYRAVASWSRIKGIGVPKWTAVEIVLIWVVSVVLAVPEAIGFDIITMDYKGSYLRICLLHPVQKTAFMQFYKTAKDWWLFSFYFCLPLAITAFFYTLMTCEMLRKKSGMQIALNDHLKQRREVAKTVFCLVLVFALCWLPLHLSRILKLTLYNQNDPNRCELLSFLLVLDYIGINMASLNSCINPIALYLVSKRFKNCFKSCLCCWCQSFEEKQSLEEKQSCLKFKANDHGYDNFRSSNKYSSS

[2] = target: T2, Endothelin-1 receptor (Homo sapiens, UniProt P25101); test: Displacement of [125I]ET-1 from ET-A receptor in human SK-N-MC cells incubated for 4 hrs by gamma counting method; type: cell-based
T2 sequence (P25101 whole entry): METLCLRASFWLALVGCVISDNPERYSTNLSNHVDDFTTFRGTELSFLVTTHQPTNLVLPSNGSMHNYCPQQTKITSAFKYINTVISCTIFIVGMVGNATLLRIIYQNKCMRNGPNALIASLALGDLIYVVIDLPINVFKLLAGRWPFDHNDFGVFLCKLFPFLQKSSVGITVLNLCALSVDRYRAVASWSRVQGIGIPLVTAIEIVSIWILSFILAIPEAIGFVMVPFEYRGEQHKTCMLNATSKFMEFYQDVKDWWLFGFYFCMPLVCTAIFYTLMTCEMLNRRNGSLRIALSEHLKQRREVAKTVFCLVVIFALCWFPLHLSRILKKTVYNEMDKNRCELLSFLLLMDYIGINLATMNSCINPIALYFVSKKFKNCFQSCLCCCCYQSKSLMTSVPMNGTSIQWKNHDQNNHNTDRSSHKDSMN

[3] = target: T3, Endothelin-1 receptor (Homo sapiens) (UniProt P25101); test: Binding affinity to ET-A receptor (unknown origin) assessed as dissociation half life
T3 sequence (whole entry): T2 sequence (P25101 whole entry)

[4] = target: T2, Endothelin-1 receptor; test: Displacement of [125I]ET-1 from human ET-A receptor expressed in CHO cell membrane incubated for 2 hrs; type: cell membranes

## CCCC[C@H](NC(=O)[C@@H](Cc1cn(C(=O)OC)c2ccccc12)NC(=O)[C@@H](CC(C)(C)C)NC(=O)N1[C@H](C)CCC[C@@H]1C)C(=O)O
[1]
  IC50: 1.2 nM
[2]
  IC50: 1300 nM

## COc1ccccc1Oc1c(NS(=O)(=O)c2ccc(C(C)(C)C)cc2)nc(-c2ncccn2)nc1OCCO
[3]
  T1/2: 1 min

## Cc1cc(C)cc(C(=O)N(C)[C@H](Cc2ccc(-c3ccccc3)cc2)C(=O)N[C@@H](Cc2c[nH]c3ccccc23)C(=O)O)c1
[4]
  IC50: 94 nM
